Target: T1, Toll-like receptor 9 (Homo sapiens) (UniProt Q9NR96)
T1 sequence (whole entry): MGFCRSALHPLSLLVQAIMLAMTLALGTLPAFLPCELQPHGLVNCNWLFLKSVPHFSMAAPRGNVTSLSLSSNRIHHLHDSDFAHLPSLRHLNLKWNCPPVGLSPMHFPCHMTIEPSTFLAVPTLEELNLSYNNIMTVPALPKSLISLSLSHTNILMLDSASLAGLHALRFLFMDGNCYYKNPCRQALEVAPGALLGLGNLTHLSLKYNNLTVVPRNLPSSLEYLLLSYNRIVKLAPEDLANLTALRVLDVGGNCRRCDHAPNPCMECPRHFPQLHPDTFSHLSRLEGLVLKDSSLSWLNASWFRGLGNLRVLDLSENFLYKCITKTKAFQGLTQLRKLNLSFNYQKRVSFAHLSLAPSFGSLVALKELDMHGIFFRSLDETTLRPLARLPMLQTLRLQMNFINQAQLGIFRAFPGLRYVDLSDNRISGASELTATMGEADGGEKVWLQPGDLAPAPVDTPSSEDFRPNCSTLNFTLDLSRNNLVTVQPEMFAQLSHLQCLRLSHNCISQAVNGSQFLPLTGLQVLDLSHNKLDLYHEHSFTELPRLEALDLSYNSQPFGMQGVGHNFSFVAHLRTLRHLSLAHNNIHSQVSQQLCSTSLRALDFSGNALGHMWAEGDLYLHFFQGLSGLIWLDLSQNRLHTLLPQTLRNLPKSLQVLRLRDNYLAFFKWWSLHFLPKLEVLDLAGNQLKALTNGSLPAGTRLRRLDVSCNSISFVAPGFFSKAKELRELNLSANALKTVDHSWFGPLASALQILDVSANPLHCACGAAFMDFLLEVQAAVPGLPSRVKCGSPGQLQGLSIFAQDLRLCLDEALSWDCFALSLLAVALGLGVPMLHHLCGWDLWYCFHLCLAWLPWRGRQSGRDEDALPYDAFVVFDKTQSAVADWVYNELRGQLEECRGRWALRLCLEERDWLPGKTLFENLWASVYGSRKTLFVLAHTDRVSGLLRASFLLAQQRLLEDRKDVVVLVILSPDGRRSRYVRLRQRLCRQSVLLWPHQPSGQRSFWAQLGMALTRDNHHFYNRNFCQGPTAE
Assay: Induction of TLR9-mediated immune stimulation in human PBMC assessed as IP10 production at 2 ug/ml after 24 hrs by luminex multiplex assay (RVb = 0.00 ng/ml)

Activity | Compound
0.03 ng/mL | Cc1cn([C@H]2C[C@H](O[C@H]3C[C@@H](O)C[C@@H](OP(=O)(S)O[C@H]4C[C@H](n5cc(C)c(=O)[nH]c5=O)O[C@@H]4COP(=O)(S)O[C@H]4[C@@H](O)[C@H](n5ccc(N)nc5=O)O[C@@H]4COP(=O)(S)O[C@H]4C[C@H](n5cc(C)c(=O)[nH]c5=O)O[C@@H]4COP(=O)(S)O[C@H]4C[C@H](n5cc(C)c(=O)[nH]c5=O)O[C@@H]4COP(=O)(S)O[C@H]4C[C@H](n5ccc6c(=O)[nH]c(N)nc65)O[C@@H]4COP(=O)(S)O[C@H]4[C@@H](O)[C@H](n5ccc(N)nc5=O)O[C@@H]4COP(=O)(S)O[C@H]4C[C@H](n5cc(C)c(=O)[nH]c5=O)O[C@@H]4COP(=O)(S)O[C@H]4[C@@H](O)[C@H](n5cnc6c(=O)[nH]c(N)nc65)O[C@@H]4COP(=O)(S)O[C@H]4C[C@H](n5cc(C)c(=O)[nH]c5=O)O[C@@H]4COP(=O)(S)O[C@H]4[C@@H](O)[C@H](n5ccc(N)nc5=O)O[C@@H]4COP(=O)(S)O[C@H]4C[C@H](n5cc(C)c(=O)[nH]c5=O)O[C@@H]4CO)C3)[C@@H](COP(=O)(S)O[C@H]3[C@@H](O)[C@H](n4ccc(N)nc4=O)O[C@@H]3COP(=O)(S)O[C@H]3C[C@H](n4cc(C)c(=O)[nH]c4=O)O[C@@H]3COP(=O)(S)O[C@H]3C[C@H](n4cc(C)c(=O)[nH]c4=O)O[C@@H]3COP(=O)(S)O[C@H]3C[C@H](n4ccc5c(=O)[nH]c(N)nc54)O[C@@H]3COP(=O)(S)O[C@H]3[C@@H](O)[C@H](n4ccc(N)nc4=O)O[C@@H]3COP(=O)(S)O[C@H]3C[C@H](n4cc(C)c(=O)[nH]c4=O)O[C@@H]3COP(=O)(S)O[C@H]3[C@@H](O)[C@H](n4cnc5c(=O)[nH]c(N)nc54)O[C@@H]3COP(=O)(S)O[C@H]3C[C@H](n4cc(C)c(=O)[nH]c4=O)O[C@@H]3COP(=O)(S)O[C@H]3[C@@H](O)[C@H](n4ccc(N)nc4=O)O[C@@H]3COP(=O)(S)O[C@H]3C[C@H](n4cc(C)c(=O)[nH]c4=O)O[C@@H]3CO)O2)c(=O)[nH]c1=O (stereo partly drawn)
0.01 ng/mL | Cc1cn([C@H]2C[C@H](O[C@@H]3C[C@@H](O)C[C@@H](OP(=O)(S)O[C@H]4C[C@H](n5cc(C)c(=O)[nH]c5=O)O[C@@H]4COP(=O)(S)O[C@H]4[C@@H](O)[C@H](n5ccc(N)nc5=O)O[C@@H]4COP(=O)(S)O[C@H]4C[C@H](n5cc(C)c(=O)[nH]c5=O)O[C@@H]4COP(=O)(S)O[C@H]4C[C@H](n5cc(C)c(=O)[nH]c5=O)O[C@@H]4COP(=O)(S)O[C@H]4C[C@H](n5ccc6c(=O)[nH]c(N)nc65)O[C@@H]4COP(=O)(S)O[C@H]4[C@@H](O)[C@H](n5ccc(N)nc5=O)O[C@@H]4COP(=O)(S)O[C@H]4C[C@H](n5cc(C)c(=O)[nH]c5=O)O[C@@H]4COP(=O)(S)O[C@H]4[C@@H](O)[C@H](n5cnc6c(=O)[nH]c(N)nc65)O[C@@H]4COP(=O)(S)O[C@H]4C[C@H](n5cc(C)c(=O)[nH]c5=O)O[C@@H]4COP(=O)(S)O[C@H]4[C@@H](O)[C@H](n5ccc(N)nc5=O)O[C@@H]4COP(=O)(S)O[C@H]4C[C@H](n5cc(C)c(=O)[nH]c5=O)O[C@@H]4CO)C3)[C@@H](COP(=O)(S)O[C@H]3[C@@H](O)[C@H](n4ccc(N)nc4=O)O[C@@H]3COP(=O)(S)O[C@H]3C[C@H](n4cc(C)c(=O)[nH]c4=O)O[C@@H]3COP(=O)(S)O[C@H]3C[C@H](n4cc(C)c(=O)[nH]c4=O)O[C@@H]3COP(=O)(S)O[C@H]3C[C@H](n4ccc5c(=O)[nH]c(N)nc54)O[C@@H]3COP(=O)(S)O[C@H]3[C@@H](O)[C@H](n4ccc(N)nc4=O)O[C@@H]3COP(=O)(S)O[C@H]3C[C@H](n4cc(C)c(=O)[nH]c4=O)O[C@@H]3COP(=O)(S)O[C@H]3[C@@H](O)[C@H](n4cnc5c(=O)[nH]c(N)nc54)O[C@@H]3COP(=O)(S)O[C@H]3C[C@H](n4cc(C)c(=O)[nH]c4=O)O[C@@H]3COP(=O)(S)O[C@H]3[C@@H](O)[C@H](n4ccc(N)nc4=O)O[C@@H]3COP(=O)(S)O[C@H]3C[C@H](n4cc(C)c(=O)[nH]c4=O)O[C@@H]3CO)O2)c(=O)[nH]c1=O (stereo partly drawn)
0.03 ng/mL | Cc1cn([C@H]2C[C@H](OCCOCCOCCOCCOCCOCCOP(=O)(S)O[C@H]3C[C@H](n4cc(C)c(=O)[nH]c4=O)O[C@@H]3COP(=O)(S)O[C@H]3[C@@H](O)[C@H](n4ccc(N)nc4=O)O[C@@H]3COP(=O)(S)O[C@H]3C[C@H](n4cc(C)c(=O)[nH]c4=O)O[C@@H]3COP(=O)(S)O[C@H]3C[C@H](n4cc(C)c(=O)[nH]c4=O)O[C@@H]3COP(=O)(S)O[C@H]3C[C@H](n4ccc5c(=O)[nH]c(N)nc54)O[C@@H]3COP(=O)(S)O[C@H]3[C@@H](O)[C@H](n4ccc(N)nc4=O)O[C@@H]3COP(=O)(S)O[C@H]3C[C@H](n4cc(C)c(=O)[nH]c4=O)O[C@@H]3COP(=O)(S)O[C@H]3[C@@H](O)[C@H](n4cnc5c(=O)[nH]c(N)nc54)O[C@@H]3COP(=O)(S)O[C@H]3C[C@H](n4cc(C)c(=O)[nH]c4=O)O[C@@H]3COP(=O)(S)O[C@H]3[C@@H](O)[C@H](n4ccc(N)nc4=O)O[C@@H]3COP(=O)(S)O[C@H]3C[C@H](n4cc(C)c(=O)[nH]c4=O)O[C@@H]3CO)[C@@H](COP(=O)(S)O[C@H]3[C@@H](O)[C@H](n4ccc(N)nc4=O)O[C@@H]3COP(=O)(S)O[C@H]3C[C@H](n4cc(C)c(=O)[nH]c4=O)O[C@@H]3COP(=O)(S)O[C@H]3C[C@H](n4cc(C)c(=O)[nH]c4=O)O[C@@H]3COP(=O)(S)O[C@H]3C[C@H](n4ccc5c(=O)[nH]c(N)nc54)O[C@@H]3COP(=O)(S)O[C@H]3[C@@H](O)[C@H](n4ccc(N)nc4=O)O[C@@H]3COP(=O)(S)O[C@H]3C[C@H](n4cc(C)c(=O)[nH]c4=O)O[C@@H]3COP(=O)(S)O[C@H]3[C@@H](O)[C@H](n4cnc5c(=O)[nH]c(N)nc54)O[C@@H]3COP(=O)(S)O[C@H]3C[C@H](n4cc(C)c(=O)[nH]c4=O)O[C@@H]3COP(=O)(S)O[C@H]3[C@@H](O)[C@H](n4ccc(N)nc4=O)O[C@@H]3COP(=O)(S)O[C@H]3C[C@H](n4cc(C)c(=O)[nH]c4=O)O[C@@H]3CO)O2)c(=O)[nH]c1=O (stereo partly drawn)

From ChEMBL document CHEMBL1157912, “Impact of nature and length of linker incorporated in agonists on toll-like receptor 9-mediated immune responses” (J Med Chem, 2010)
